According to BindingDB's records for doi:10.1021/jm00050a008 (University of North Carolina, 1995):

Experiment: The compound was tested for affinity towards sigma-3 receptor

Row | SMILES | IC50 [nM]
1 | CNC1Cc2ccccc2C(c2ccccc2)C1 (stereo not given) | 79
2 | CCN(CC)C1Cc2ccccc2C(c2ccccc2)C1 (trans isomer) | 2.2
3 | CCCNC1Cc2ccccc2C(c2ccccc2)C1 (stereo not given) | 59
4 | CCCN(C)C1Cc2ccccc2C(c2ccccc2)C1 (stereo not given) | 4.5
5 | CCCN(CCC)C1Cc2ccccc2C(c2ccccc2)C1 (stereo not given) | 13
